In ChEMBL document CHEMBL5113385, “Natural products and synthetic analogues against HIV: A perspective to develop new potential anti-HIV drugs” (Eur J Med Chem, 2022):
Each block holds one molecule with its values, some of them ahead of it.

How the values were obtained:
[1] = Selectivity index, ratio of CC50 for human C8166 cells to EC50 for HIV IIIB infected in human C8166 cells; format: toxicity, cell-based; conditions: C8166 cells (uninfected, and infected with HIV IIIB), read-out: Ratio CC50/EC50
[2] = test system: Human immunodeficiency virus 1; assay: Antiviral activity against wild-type HIV-1 IIIB infected in human C8166 cells assessed as reduction in virus-induced cytopathic effect incubated for 3 days by MTT assay; format: functional, organism-based; conditions: Human immunodeficiency virus 1, IIIB, C8166, 72 h
[3] = test system: Human immunodeficiency virus 1; assay: Antiviral activity against HIV-1 IIIB infected in human MT2 cells assessed as reduction in viral replication; format: functional, organism-based; conditions: Human immunodeficiency virus 1, IIIB
[4] = Selectivity index, ratio of CC50 for human MT2 cells to EC50 for HIV-1 IIIB infected in human MT2 cells; format: toxicity, cell-based; conditions: MT2 cells (uninfected, and infected with HIV-1 IIIB), read-out: Ratio CC50/EC50
[5] = test system: Human immunodeficiency virus 1; assay: Antiviral activity against HIV-1 IIIB infected in human MT4 cells assessed as reduction in virus-induced cytopathic effect incubated for 5 days by MTT assay; format: functional, organism-based; conditions: Human immunodeficiency virus 1, IIIB, MT4, 120 h
[6] = test system: MT4; assay: Cytotoxicity against human MT4 cells assessed as reduction in cell viability incubated for 5 days by MTT assay; format: functional; conditions: MT4, 120 h, time 5 day
[7] = test system: Human immunodeficiency virus 1; assay: Antiviral activity against HIV-1 E138K mutant infected in human MT4 cells assessed as reduction in viral replication incubated for 5 days by MTT assay; format: functional, organism-based; conditions: Human immunodeficiency virus 1, E138K mutant, MT4, 120 h
[8] = Selectivity index, ratio of CC50 for human MT4 cells to EC50 for HIV-1 IIIB infected in human MT4 cells; format: toxicity, cell-based; conditions: MT4 cells (uninfected, and infected with HIV-1 IIIB), read-out: Ratio CC50/EC50
[9] = Inhibition of HIV-1 gp41 six-helix bundle formation incubated with N36 for 30 mins followed by incubation with C34 peptide for 30 mins by sandwich ELISA; format: functional, Human immunodeficiency virus 1
[10] = test system: Human immunodeficiency virus 1; assay: Antiviral activity against HIV-1 NL4-3 infected in human TZM-bl cells assessed as reduction in virus-induced cytopathic effect incubated for 2 days by Bright Glo assay; format: functional, organism-based; conditions: Human immunodeficiency virus 1, NL4-3, TZM-bl, 48 h

SMILES: CCc1c(CC2CCCCC2)nc(SCc2cc(-c3ccc(O)cc3)[nH]n2)[nH]c1=O
selectivity ratio [1]: 25.5 | IC50 [2]: 3.8 nM

SMILES: N#Cc1ccc(Nc2nccc(/C(=N\O)c3ccc(-c4ccc(F)cc4)cc3F)n2)cc1
IC50 [5]: 12100 nM | CC50 [6]: > 292000 nM | IC50 [7]: 27 nM | selectivity ratio [8]: > 24100

Now from value to molecule, other results behind:

IC50 [3]: 148 nM
SMILES: Cc1cccc2cc(/C=C3\NC(=O)N(Cc4ccccc4)C3=O)c(Cl)nc12
selectivity ratio [4]: 117

IC50 [9]: 23000 nM
SMILES: Cc1cc(/C=C2\SC(=S)N(Cc3ccccc3C(F)(F)F)C2=O)c(C)n1-c1ccc(O)c(C(=O)O)c1

IC50 [10]: 2130 nM
SMILES: COc1ccc(N(C)C(=O)[C@H](Cc2cc(F)cc(F)c2)NC(=O)c2cccc(-c3cn(Cc4ccc([N+](=O)[O-])cc4)nn3)c2)cc1
